Test [1] has as its system cyclin dependent kinase 2 (CDK2). As to conditions: MCF7 breast cancer cell lines, 30 µM; cited from earlier work.
In test [2] the test system is K562 cells. Put plainly: MTT cell viability assay. As to conditions: Homo sapiens. The format is cell-based. The protocol: Cell viability of K562 cells was quantified by MTT based colorimetric assay as described elsewhere. Briefly, cells were rinsed with PBS and 0.5 mg/ml MTT was added into each sample. The mixture was incubated at 37°C for an additional 3 h. At the end of incubation period, the medium containing MTT was removed and the pellet was dissolved in 200 µl DMSO. Absorbance was measured at a wavelength of 570 nm. Cell viability was expressed as a percentage of the control culture.
The concentration (IC50) at which the K562 cell survivability was reduced to 50% was calculated for EGCG and 3-AT by MTT based cell viability assay.
For orientation: Tetrazolium assays rely on reduction of a dye to a coloured formazan, in cell work by metabolically active cells.

Test [3] deals with T1, Catalase (from bovine liver) (Bos taurus, UniProt P00432).
T1 construct: Catalase (from bovine liver); purchased Sigma-Aldrich, St. Louis, MO, USA; host or cells: bovine liver
T1 sequence (P00432 2-527 limits assumed): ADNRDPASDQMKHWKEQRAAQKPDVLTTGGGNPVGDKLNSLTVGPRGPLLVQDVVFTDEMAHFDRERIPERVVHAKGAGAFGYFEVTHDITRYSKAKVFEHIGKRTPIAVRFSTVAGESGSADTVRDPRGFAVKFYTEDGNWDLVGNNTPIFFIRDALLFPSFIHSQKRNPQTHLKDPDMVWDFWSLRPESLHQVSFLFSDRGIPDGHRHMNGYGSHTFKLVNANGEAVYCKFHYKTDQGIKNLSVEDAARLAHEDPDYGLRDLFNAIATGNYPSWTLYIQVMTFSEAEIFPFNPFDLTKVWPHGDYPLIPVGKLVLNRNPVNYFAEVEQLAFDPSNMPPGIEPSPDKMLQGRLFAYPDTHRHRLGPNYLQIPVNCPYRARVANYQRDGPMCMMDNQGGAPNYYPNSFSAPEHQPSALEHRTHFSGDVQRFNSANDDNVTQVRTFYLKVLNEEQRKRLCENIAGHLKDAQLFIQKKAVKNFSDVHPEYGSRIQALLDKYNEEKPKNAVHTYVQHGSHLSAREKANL
Kind of test: Fluorimetric titration: quenching of catalase fluorescence by catechins. It is filed as binding. On the procedure: Fluorescence spectra were recorded using a Perkin Elmer fluorescence spectrophotometer (LS-55) equipped with 150 W Xenon flash lamp and using fluorescence-free quartz cell of 1 cm path length. The widths of excitation and emission slits were set to 5 nm, and scan speed (100 nm/min), excitation voltage were kept constant for each data set. Quantitative analysis of the potential interaction between catechins and catalase was performed by the fluorimetric titration technique. Briefly, solution of catalase (5×10^−7 M, as calculated using molar extinction coefficient of 3.24×10^5 M^−1 s^−1 at 405 nm for catalase) in 50 mM phosphate buffer of pH 7.4 was titrated in cuvette by successive additions of individual catechin solution aliquots from a stock of 5×10^−7 M. Fluorescence emission spectra were recorded in the wavelength range of 290–450 nm upon excitation at 280 nm when catalase samples were titrated with catechins. All experiments were carried out at room temperature. Fluorescence intensity was measured at 340 nm of protein emission spectra. Fluorescence spectra of individual catechins in buffer were recorded as blanks under the same experimental conditions and subtracted from the corresponding sample to correct the fluorescence background.
The binding constants and the number of binding sites involved were calculated according to the relation: log (F0–F)/F = log K+n log [Q], where K is the binding constant and n is the number of binding sites, F0 is the fluorescence intensity of free catalase, F is the consecutive fluorescence on addition of catechins, and [Q] is the concentration of the quencher (here catechins). A plot of log (F0– F)/F and log [Q] was used to determine the values of K and n from the intercept and the slope respectively (Figure 3 A–D).

In test [4] the test system is K562 cells. Kind of test: Intracellular ROS by DCFDA fluorescent probe. The format is cell-based, human. The settings on record: 24 h, basal 255.09±3.69 AU. On the procedure: Intracellular ROS were estimated by using the DCFDA fluorescent probe. Intracellular H2O2 and other peroxides can oxidize DCFDA to highly fluorescent compound dichlorofluorescein (DCF). K562 cells were incubated at 37°C in absence and presence of EGCG (12.5 – 100 µM) for 24 h. Cells were again incubated with 10 µM DCFDA at 37°C for an additional 30 min, and then washed twice with PBS. Finally the fluorescence intensity of DCF was measured with an excitation wavelength of 485 nm and emission wavelength of 530 nm.

In test [5] the target is T1, Catalase (from bovine liver). Kind of test: Inhibition of pure catalase activity (cell free), H2O2 decay at 240 nm. It is filed as biochemical. The protocol: Absorption spectrophotometer (Varian, CARY 100 Bio, USA) was used to determine pure catalase activity (cell free). Briefly, 900 µl of H2O2 (0.036%) was taken in quartz cell of 1 cm path length and its absorbance was recorded at 240 nm. To the solution, 100 µl of catalase (50 U/ml) was added and the decrease in absorbance was recorded at 10 s interval. This experiment was performed in presence 50 µM each of four catechins and 3-AT separately to evaluate the inhibitory effect of catechins on catalase activity, after 1 h incubation.
On addition of catechins, a decrease in rate of H2O2 degradation i.e. a decrease in pure catalase activity was observed which is represented in Figure 6A. Catechins with galloyl moiety (ECG and EGCG) reduced catalase activity more than its non-gallated counterparts i.e. EGC and EC. However, Inhibition by EGCG is the closest to inhibition by known catalase inhibitor 3-AT.

For test [6], the system named is phosphorylation of JNK, JUN, MEK1, MEK2. As to conditions: JB6 epidermal cell lines, 5–20 µM; cited from earlier work.
Test [7] addresses human dihydrofolate reductase (DHFR). Also on record: method as in PMID 20054477. The settings on record: fluorescence quenching; cited from earlier work.

One may read the IC50 as the point on the concentration scale where inhibition reaches its midpoint. A high value points to weaker potency.

With `O=C(O[C@@H]1Cc2c(O)cc(O)cc2O[C@@H]1c1cc(O)c(O)c(O)c1)c1cc(O)c(O)c(O)c1` [EGCG, (−)-epigallocatechin gallate], the “inhibition of CDK2” value in test [1] is reported as “inhibited”. The IC50 in the test on K562 cells [2] came to 54.5 µM; in the test with K562 cells [2] (conversion of the µM value), 27 µg/mL. The “number of binding sites n” value in test [3] (double logarithmic plot, 25°C) is reported as “single binding site”. Also, the “binding constant K with catalase (fluorimetric)” value in test [3] (double logarithmic plot, 25°C, pH 7.4, λex 280 nm) worked out at 2.27e+06 M⁻¹. Moreover, the Kd in test [3] (from the fluorimetric binding constant, read-out: K d to catalase) is 440 nM; in test [7] it was 900 nM. The “intracellular ROS” value with K562 cells [4] (12.5 µM) stood at 298.01±4.89 AU; in the test on K562 cells [4] (25 µM), 320.83±4.03 AU; with K562 cells [4] (50 µM), 354.07±4.66 AU; in the test on K562 cells [4] (100 µM) it was 442.90±7.43 AU. In addition, in test [5] (Lineweaver-Burk plot, uninhibited 0.0081), the “y-intercept 1/V0 of inhibited catalase” value was determined as 0.3635 min/µM. The “type of inhibition (Lineweaver-Burk plot)” value in test [5] (catalase – H2O2 reaction) was “uncompetitive”. Also, in test [5] (pure catalase, 50 µM each, 1 h incubation), the “order of inhibition of catalase activity” value is 3-AT>EGCG>ECG>EC>EGC. Further, the “inhibition of phosphorylation of JNK, JUN, MEK1, MEK2” value in test [6] was “inhibited”.

Source of the values: article PMC4099323, “Inhibition of Catalase by Tea Catechins in Free and Cellular State: A Biophysical Approach” (PLoS ONE, 2014).
